Source: patent publication US20080176264A1, “Osteoclast Culture Vessels and Methods of Use” (priority 2004, published 2008)

Tested on: primary human osteoclast precursors
Assay: In vitro bone resorption assay in OSTEOASSAY plate (CTx collagen resorption product in supernatant, EIA)
Format: cell-based
Settings: supernatants assayed after an additional 2 days, M-CSF and soluble RANK ligand
Description: OSTEOASSAY™ plates, which contain adherent particles (≦0.125 mm dimension) of native human bone, were seeded with 10,000 primary human osteoclast precursors (“Poietics™ Osteoclast Precursors,” product no. 2T-110, Cambrex Corporation) per well in medium containing M-CSF+/−soluble RANK ligand and cultured at 37° C. for 5-7 days. Culture media were changed on day 5, 6 or 7 and the cultures were continued for another 1 to 3 days.
The release into the culture supernatants of collagen type I peptides from the bone particles was measured quantitatively by enzyme immunoassay (EIA). Three different commercially available assay kits for the measurement of resorption-specific collagen resorption fragments were evaluated: the METRA™ Helical Peptide EIA kit (Quidel), the Serum CROSSLAPS® ELISA (Nordic Bioscience) kit, and the OSTEOMARK® NTx (Ostex) kit. In some experiments, the OSTEOASSAY™ plate was compared to dentin discs (ALPCO Diagnostics). In other assays, primary human osteoclast precursors were exposed to inhibitors of osteoclast function (alendronate or calcitonin) for 48-72 hours and then assayed for bone resorptive activity.
Primary human osteoclast precursors were seeded at 10,000 cells/well and cultured in medium containing M-CSF and soluble RANK ligand. After 5 days of culture, the medium was renewed +/−1 nM calcitonin or +/−various concentrations of alendronate. […]

IC50 (Homo sapiens, Osteoclast, various concentrations added after 5 days of culture, FIG. 4, read-out: IC50 for inhibition of bone resorption (CTx collagen resorption product)) | Compound | inhibition of in vitro bone resorption (CTx collagen resorption product) (1 nM calcitonin added after 5 days of culture, FIG. 3)
~1000 nM | NCCCC(O)(P(=O)(O)O)P(=O)(O)O [alendronate] | –
– | calcitonin | effectively inhibits in vitro bone resorption
